In patent US20200283381A1, “SOLID STATE FORMS OF ELAFIBRANOR” (TEVA PHARMACEUTICALS INTERNATIONAL GMBH, priority 2017, published 2020):

Key:
[1] = Hygroscopicity (water absorption, European Pharmacopoeia 7.0, chapter 01/2008:51100); type: physicochemical; conditions: non-hygroscopic = less than 0.1% (w/w) of water absorption after 24 h exposure to 25° C./80% RH
Method: As used herein the term non-hygroscopic in relation to crystalline Elafibranor refers to less than 0.1% (w/w) of water absorption after 24 h exposure to 25° C./80% RH, determined according to European Pharmacopoeia 7.0, chapter 01/2008:51100. Water can be for example atmospheric water.

[2] = Thermodynamic (polymorphic) stability: conversion to other solid state forms, measured by XRPD; type: physicochemical; conditions: after exposure to conditions of up to 25° C./100% RH for at least 1 month, as measured by XRPD; stable = less than 20% conversion
Method: The crystalline Elafibranor as described above in (a)-(f) may be anhydrous. The crystalline Elafibranor may be substantially free of other solid state forms of Elafibranor. […] In some embodiments, the conversion is 1%-20%, 1%-10% or 1%-5%.
Melting peak of crystalline form I of Elafibranor is in the range of about 154° C. and about 164° C., for example about 158° C. and about 160° C., preferably at about 159° C. as measured by DSC. […] Thermodynamic stability in relation to crystalline Elafibranor form I refers to less than 20%, less than 10%, less than 5%, less than 2%, less than 1%, or less than 0.5% conversion of crystalline Elafibranor form I to any other solid state form of Elafibranor after exposure of form I to conditions of up to 25° C./100% RH for at least 1 month, as measured by XRPD. In some embodiments, the conversion is 1%-20%, 1%-10% or 1%-5%.
Thermodynamic stability in relation to crystalline Elafibranor form II refers to less than 20%, 10%, 5%, 2%, 1%, or 0.5% conversion of crystalline Elafibranor form II to any other solid state form of Elafibranor after exposure of form II to conditions of up to 25° C./100% RH for at least 1 month, as measured by XRPD. In some embodiments, the conversion is 1%-20%, 1%-10% or 1%-5%.
Sample after being powdered in a mortar and pestle is applied directly on a silicon plate holder. […]

CSc1ccc(C(=O)/C=C/c2cc(C)c(OC(C)(C)C(=O)O)c(C)c2)cc1 [form I, 2-(2,6-dimethyl-4-{3-[4-(methylsulfanyl)phenyl]-3-oxoprop-1-en-1-yl}phenoxy)-2-methylpropanoic acid]
hygroscopicity [1]: non-hygroscopic
thermodynamic stability (conversion to any other solid state form of Elafibranor) [2]: thermodynamically stable
